PubChem BioAssay AID1259407 (Chemical Carcinogenesis Research Information System (CCRIS), 2018)
Calls of active or inactive are those of the source. How the calls were made is not given here.

Tested on: CCRIS mutagenicity, Ames/micronucleus/aberration tests
Test: CCRIS mutagenicity studies

COC(=O)Nc1nc2ccccc2[nH]1
mutagenic call (End Point: IN VITRO CHROMOSOMAL ABERRATIONS, Test System: HUMAN PERIPHERAL LYMPHOCYTES, Metabolic Activation: RAT, LIVER, S-9, AROCLOR 1254): inactive; negative | mutagenic call (End Point: IN VITRO MICRONUCLEUS, Test System: HUMAN PERIPHERAL LYMPHOCYTES, Metabolic Activation: NONE): active; positive | mutagenic call (End Point: IN VITRO MICRONUCLEUS, Test System: V79 CELLS, Metabolic Activation: NONE): active; positive | mutagenic call (End Point: In vitro micronucleus, Test System: Mouse lymphoma L5178Y cells, Metabolic Activation: None): active; positive | mutagenic call (End Point: In vivo micronucleus, Test System: Micronucleated, binucleated and multinucleated hepatocytes, Species: Mouse, Strain/Sex: ddY/Male, Route: Oral): active; positive for micronucleated, binucleated and multinucleated cells when agent adm | mutagenic call (Test System: AMES SALMONELLA TYPHIMURIUM, Strain/Indicator: TA97, Metabolic Activation: NONE, Method: PREINCUBATION): inactive; negative | mutagenic call (Test System: AMES SALMONELLA TYPHIMURIUM, Strain/Indicator: TA97, Metabolic Activation: NONE, Method: STANDARD PLATE): inactive; negative | mutagenic call (Test System: AMES SALMONELLA TYPHIMURIUM, Strain/Indicator: TA97, Metabolic Activation: RAT, LIVER, S-9, PHENOBARBITAL AND BETA-NAPHTHOFLAVONE, Method: PREINCUBATION): active; positive | mutagenic call (Test System: AMES SALMONELLA TYPHIMURIUM, Strain/Indicator: TA97, Metabolic Activation: RAT, LIVER, S-9, PHENOBARBITAL AND BETA-NAPHTHOFLAVONE, Method: STANDARD PLATE): inactive; negative | mutagenic call (Test System: AMES SALMONELLA TYPHIMURIUM, Strain/Indicator: TA97A, Metabolic Activation: NONE, Method: STANDARD PLATE): inactive; negative | mutagenic call (Test System: AMES SALMONELLA TYPHIMURIUM, Strain/Indicator: TA97A, Metabolic Activation: PLANT, HOMOGENATE, S-14, Method: STANDARD PLATE): inactive; negative | mutagenic call (Test System: AMES SALMONELLA TYPHIMURIUM, Strain/Indicator: TA97A, Metabolic Activation: S-9, Method: STANDARD PLATE): inactive; negative | mutagenic call (Test System: AMES SALMONELLA TYPHIMURIUM, Strain/Indicator: TA98, Metabolic Activation: HAMSTER, LIVER, S-9, AROCLOR 1254 (10%), Method: PREINCUBATION): active; positive | mutagenic call (Test System: AMES SALMONELLA TYPHIMURIUM, Strain/Indicator: TA98, Metabolic Activation: NONE, Method: PREINCUBATION): inactive; negative | mutagenic call (Test System: AMES SALMONELLA TYPHIMURIUM, Strain/Indicator: TA98, Metabolic Activation: PLANT, HOMOGENATE, S-14, Method: STANDARD PLATE): inactive; negative | mutagenic call (Test System: AMES SALMONELLA TYPHIMURIUM, Strain/Indicator: TA98, Metabolic Activation: RAT, LIVER, S-9, AROCLOR 1254 (10%), Method: PREINCUBATION): active; positive | mutagenic call (Test System: AMES SALMONELLA TYPHIMURIUM, Strain/Indicator: TA98, Metabolic Activation: RAT, LIVER, S-9, PHENOBARBITAL AND BETA-NAPHTHOFLAVONE, Method: PREINCUBATION): active; positive | mutagenic call (Test System: AMES SALMONELLA TYPHIMURIUM, Strain/Indicator: TA98, Metabolic Activation: RAT, LIVER, S-9, PHENOBARBITAL AND BETA-NAPHTHOFLAVONE, Method: STANDARD PLATE): active; positive | mutagenic call (Test System: AMES SALMONELLA TYPHIMURIUM, Strain/Indicator: TA98, Metabolic Activation: RAT, LIVER, S-9, PHENOBARBITONE, Method: PREINCUBATION): inactive; negative | mutagenic call (Test System: AMES SALMONELLA TYPHIMURIUM, Strain/Indicator: TA98, Metabolic Activation: S-9, Method: STANDARD PLATE): inactive; negative | mutagenic call (Test System: AMES SALMONELLA TYPHIMURIUM, Strain/Indicator: TA100, Metabolic Activation: HAMSTER, LIVER, S-9, AROCLOR 1254 (10%), Method: PREINCUBATION): inactive; negative | mutagenic call (Test System: AMES SALMONELLA TYPHIMURIUM, Strain/Indicator: TA100, Metabolic Activation: NONE, Method: PREINCUBATION): inactive; negative | mutagenic call (Test System: AMES SALMONELLA TYPHIMURIUM, Strain/Indicator: TA100, Metabolic Activation: PLANT, HOMOGENATE, S-14, Method: STANDARD PLATE): inactive; negative | mutagenic call (Test System: AMES SALMONELLA TYPHIMURIUM, Strain/Indicator: TA100, Metabolic Activation: RAT, LIVER, S-9, AROCLOR 1254 (10%), Method: PREINCUBATION): inactive; negative | mutagenic call (Test System: AMES SALMONELLA TYPHIMURIUM, Strain/Indicator: TA100, Metabolic Activation: RAT, LIVER, S-9, AROCLOR 1254, Method: STANDARD PLATE): inactive; negative | mutagenic call (Test System: AMES SALMONELLA TYPHIMURIUM, Strain/Indicator: TA100, Metabolic Activation: RAT, LIVER, S-9, PHENOBARBITAL AND BETA-NAPHTHOFLAVONE, Method: PREINCUBATION): inactive; negative | mutagenic call (Test System: AMES SALMONELLA TYPHIMURIUM, Strain/Indicator: TA100, Metabolic Activation: RAT, LIVER, S-9, PHENOBARBITAL AND BETA-NAPHTHOFLAVONE, Method: STANDARD PLATE): inactive; negative | mutagenic call (Test System: AMES SALMONELLA TYPHIMURIUM, Strain/Indicator: TA100, Metabolic Activation: RAT, LIVER, S-9, PHENOBARBITONE, Method: PREINCUBATION): inactive; negative | mutagenic call (Test System: AMES SALMONELLA TYPHIMURIUM, Strain/Indicator: TA100, Metabolic Activation: S-9, Method: STANDARD PLATE): inactive; negative | mutagenic call (Test System: AMES SALMONELLA TYPHIMURIUM, Strain/Indicator: TA102, Metabolic Activation: NONE, Method: PREINCUBATION): inactive; negative | mutagenic call (Test System: AMES SALMONELLA TYPHIMURIUM, Strain/Indicator: TA102, Metabolic Activation: NONE, Method: STANDARD PLATE): inactive; negative | mutagenic call (Test System: AMES SALMONELLA TYPHIMURIUM, Strain/Indicator: TA102, Metabolic Activation: RAT, LIVER, S-9, PHENOBARBITAL AND BETA-NAPHTHOFLAVONE, Method: PREINCUBATION): inactive; negative | mutagenic call (Test System: AMES SALMONELLA TYPHIMURIUM, Strain/Indicator: TA102, Metabolic Activation: RAT, LIVER, S-9, PHENOBARBITAL AND BETA-NAPHTHOFLAVONE, Method: STANDARD PLATE): inactive; negative | mutagenic call (Test System: AMES SALMONELLA TYPHIMURIUM, Strain/Indicator: TA1535, Metabolic Activation: HAMSTER, LIVER, S-9, AROCLOR 1254 (10%), Method: PREINCUBATION): inactive; negative | mutagenic call (Test System: AMES SALMONELLA TYPHIMURIUM, Strain/Indicator: TA1535, Metabolic Activation: NONE, Method: PREINCUBATION): inactive; negative | mutagenic call (Test System: AMES SALMONELLA TYPHIMURIUM, Strain/Indicator: TA1535, Metabolic Activation: PLANT, HOMOGENATE, S-14, Method: STANDARD PLATE): inactive; negative | mutagenic call (Test System: AMES SALMONELLA TYPHIMURIUM, Strain/Indicator: TA1535, Metabolic Activation: RAT, LIVER, S-9, AROCLOR 1254 (10%), Method: PREINCUBATION): inactive; negative | mutagenic call (Test System: AMES SALMONELLA TYPHIMURIUM, Strain/Indicator: TA1535, Metabolic Activation: RAT, LIVER, S-9, AROCLOR 1254, Method: STANDARD PLATE): inactive; negative | mutagenic call (Test System: AMES SALMONELLA TYPHIMURIUM, Strain/Indicator: TA1535, Metabolic Activation: RAT, LIVER, S-9, PHENOBARBITAL AND BETA-NAPHTHOFLAVONE, Method: PREINCUBATION): inactive; negative | mutagenic call (Test System: AMES SALMONELLA TYPHIMURIUM, Strain/Indicator: TA1535, Metabolic Activation: RAT, LIVER, S-9, PHENOBARBITAL AND BETA-NAPHTHOFLAVONE, Method: STANDARD PLATE): inactive; negative | mutagenic call (Test System: AMES SALMONELLA TYPHIMURIUM, Strain/Indicator: TA1535, Metabolic Activation: S-9, Method: STANDARD PLATE): inactive; negative | mutagenic call (Test System: AMES SALMONELLA TYPHIMURIUM, Strain/Indicator: TA1537, Metabolic Activation: HAMSTER, LIVER, S-9, AROCLOR 1254 (10%), Method: PREINCUBATION): active; positive | mutagenic call (Test System: AMES SALMONELLA TYPHIMURIUM, Strain/Indicator: TA1537, Metabolic Activation: NONE, Method: PREINCUBATION): inactive; negative | mutagenic call (Test System: AMES SALMONELLA TYPHIMURIUM, Strain/Indicator: TA1537, Metabolic Activation: RAT, LIVER, S-9, AROCLOR 1254 (10%), Method: PREINCUBATION): active; positive | mutagenic call (Test System: AMES SALMONELLA TYPHIMURIUM, Strain/Indicator: TA1537, Metabolic Activation: RAT, LIVER, S-9, AROCLOR 1254, Method: STANDARD PLATE): inactive; negative | mutagenic call (Test System: AMES SALMONELLA TYPHIMURIUM, Strain/Indicator: TA1537, Metabolic Activation: RAT, LIVER, S-9, PHENOBARBITAL AND BETA-NAPHTHOFLAVONE, Method: PREINCUBATION): active; positive | mutagenic call (Test System: AMES SALMONELLA TYPHIMURIUM, Strain/Indicator: TA1537, Metabolic Activation: RAT, LIVER, S-9, PHENOBARBITAL AND BETA-NAPHTHOFLAVONE, Method: STANDARD PLATE): inactive; negative | mutagenic call (Test System: AMES SALMONELLA TYPHIMURIUM, Strain/Indicator: TA1538, Metabolic Activation: NONE, Method: PREINCUBATION): inactive; negative | mutagenic call (Test System: AMES SALMONELLA TYPHIMURIUM, Strain/Indicator: TA1538, Metabolic Activation: NONE, Method: STANDARD PLATE): inactive; negative | mutagenic call (Test System: AMES SALMONELLA TYPHIMURIUM, Strain/Indicator: TA1538, Metabolic Activation: RAT, LIVER, S-9, AROCLOR 1254, Method: STANDARD PLATE): inactive; negative | mutagenic call (Test System: AMES SALMONELLA TYPHIMURIUM, Strain/Indicator: TA1538, Metabolic Activation: RAT, LIVER, S-9, PHENOBARBITAL AND BETA-NAPHTHOFLAVONE, Method: PREINCUBATION): active; positive | mutagenic call (Test System: AMES SALMONELLA TYPHIMURIUM, Strain/Indicator: TA1538, Metabolic Activation: RAT, LIVER, S-9, PHENOBARBITAL AND BETA-NAPHTHOFLAVONE, Method: STANDARD PLATE): active; positive | mutagenic call (Test System: Mouse lymphoma, Strain/Indicator: L5178Y (tk+/tk-)/Trifluorothymidine, Metabolic Activation: None, Method: Microtiter): active; positive
